Key:
[1] = test system: STZ (130 mg/kg) diabetic pigs; assay: Two-week oral metformin treatment of STZ diabetic pigs: postprandial plasma glucose and insulin, body weight, urinary glucose excretion; assay type: in vivo, pig
Procedure: (§1) Protocol 5: insulin-mediated whole body glucose disposal, after a two-week placebo or metformin (twice 1.5 g per day) oral treatment period under conditions of iso-energetic feeding, was studied with the hyperinsulinemic (2 mU/kg/minute) euglycemic clamp technique in 14 STZ (130 mg/kg) diabetic pigs.
Fasting blood samples were taken before the start of hyperinsulinemic clamp experiments and postprandial blood samples were taken two to three hours after a morning meal in the week following a clamp study.
Plasma insulin concentration was measured using a Delfia assay (test kit No. B080-1101 by Perkin Elmer Life Sciences, trust by Wallac Oy, Turku, Finland). This specific pig insulin assay was validated using pig insulin standards. Plasma and urine glucose concentrations were analyzed enzymically on an autoanalyzer of Radiometer (ABL and AML, Copenhagen, Denmark). Urine was collected in buckets containing 0.5 grams Halamid-d (sodium-p-toluenesulfonchloramide, Akzo Nobel Chemicals, Amersfoort, NL) to prevent microbial breakdown of glucose. Urine volume was registered over a given interval in order to calculate the rate of urinary glucose excretion. Urine samples (0.5 mL) were stored at −20° C. for later glucose analyses. Ketones (acetoacetic acid) were determined in fresh urine by a reagent strip test (Ketostix, Bayer Diagnostics, Mijdrecht, NL).

rodent = rodent studies, relatively high doses (100 to 500 mg/kg); cited from earlier work
[2] = test system: STZ (130 mg/kg) diabetic pigs; assay: Hyperinsulinemic euglycemic clamp in STZ diabetic pigs after two-week metformin treatment; assay type: in vivo, pig
Procedure: as §1
After overnight fasting, at t=0 minute, insulin was administered as a prime—(17 or 34 mU/kg) continuous (1 or 2 mU/kg/minute) infusion for three hours in normal pigs. Simultaneously, a variable infusion of a 33% D-glucose solution was started and adjusted every ten minutes to maintain the plasma glucose concentration at euglycemic levels and a 6,6-^2H-glucose solution was given as a prime—(216 mg) continuous (3.6 mg/minute). Steady-state conditions were achieved within 90 minutes after initiation of the hyperinsulinemic clamp and steady-state calculations were carried out during the last hour of the clamp (t=120, 135, 150, 165 and 180 minutes). In hyperglycemic diabetic pigs, insulin was given as a prime—(34 or 136 mU/kg) continuous (2 or 8 mU/kg/minute) infusion for five hours. After reaching euglycemic levels, a variable infusion of a 33% D-glucose solution was started and adjusted every ten minutes to maintain the plasma glucose concentration at euglycemia. At t=2 hours, 6,6-^2H-glucose was administered as a prime— (216 mg) continuous (3.6 mg/minute) infusion for the last three hours of the clamp in diabetic pigs. Steady-state conditions were achieved during the last hour of the clamp and steady-state calculations were carried out at (t=240, 255, 270, 285 and 300 minutes).

[3] = metformin twice 1.5 g per day oral, two weeks
[4] = after two weeks metformin, insulin 2 mU/kg/minute

**Q.** With `CN(C)C(=N)N=C(N)N` [Metformin, metformin] as the compound, how does the “Reduction in postprandial plasma glucose compared to placebo-treated pigs” value ([1]; after 14 days of metformin) read?
**A.** 30%

**Q.** And the “Postprandial plasma glucose, before treatment” value ([1]; metformin group, baseline)?
**A.** 31.0 ± 5.8 mmol/L

**Q.** And the “Postprandial plasma insulin, before treatment” value ([1]; metformin group, baseline)?
**A.** 1 ± 0 mU/L

**Q.** What about the “Postprandial plasma glucose, at end of treatment” value [1, 3] of the same compound?
**A.** 24.9 ± 2.2 mmol/L

**Q.** What about the “Postprandial plasma insulin, at end of treatment” value [1, 3] of the same compound?
**A.** 3 ± 1 mU/L

**Q.** And the “Effect on glucose homeostasis” value (rodent)?
**A.** immediate (within days) effect

**Q.** And the Fasting plasma glucose ([2]; after two weeks metformin)?
**A.** 14.7 ± 1.5 mmol/L

**Q.** And the Fasting plasma insulin ([2]; after two weeks metformin)?
**A.** 11 ± 6 mU/L

**Q.** What about the “Fasting plasma insulin, range” value ([2]; after two weeks metformin) of the same compound?
**A.** range (3-37) mU/L

**Q.** And the “Increase in insulin-stimulated whole body glucose disposal compared to placebo-treated diabetic pigs” value ([2]; after two weeks metformin)?
**A.** 60%

**Q.** And the “Reduction in fasting plasma glucose compared to placebo-treated diabetic pigs” value ([2]; after two weeks metformin)?
**A.** 24%

**Q.** What about the “Steady-state clamp glucose infusion rate (whole body glucose disposal)” value [2, 4] of the same compound?
**A.** 9.4 ± 2.2 mg/kg/min

**Q.** What about the “Steady-state clamp plasma glucose” value [2, 4] of the same compound?
**A.** 5.3 ± 0.3 mmol/L

**Q.** What about the “Steady-state clamp plasma insulin” value [2, 4] of the same compound?
**A.** 42 ± 7 mU/L

**Q.** What about the “Time to reach euglycemia in diabetic pigs” value [2, 4] of the same compound?
**A.** 105 ± 28 min

**Q.** And the “Steady-state clamp glucose infusion rate (whole body glucose disposal)” value ([2]; after two weeks metformin, insulin 2 mU/kg/minute, listed as metformin)?
**A.** 9.4 mg/kg/min

**Q.** What about the “Whole body glucose disposal, metformin group compared to placebo group” value ([2]; similar insulin stimulation) of the same compound?
**A.** 1.6 fold
